In paper PMC9323974, “Palladium(II) Complexes of Substituted Salicylaldehydes: Synthesis, Characterization and Investigation of Their Biological Profile” (Pharmaceuticals, 2022):
Several values for one entry are separate records, joined by “and”; a condition that tells them apart may be missing. Identical values can stand only once. Like-named read-outs stand apart in the source and are kept apart here.

Tests used:
[1] = system: Bacillus subtilis ATCC 6633; assay: MIC determination; assay type: cell-based
Procedure: (§1) S2 Antibacterial activity
(§2) The antimicrobial activity of the compounds was evaluated by determining their respective MIC values towards two Gram–(–) (Escherichia coli NCTC 29212 (E. coli) and Xanthomonas campestris ATCC 1395 (X. campestris)) and two Gram–(+) (Staphylococcus aureus ATCC 6538 (S. aureus) and Bacillus subtilis ATCC 6633 (B. subtilis)) bacterial species. Cultures of these microbial strains were grown on a rich selective agar medium and stored at 4°C. The selective media used were Nutrient Agar or Broth for B. subtilis and S. aureus, Yeast Mold Agar or Broth for X. campestris and Luria Agar or Broth for E. coli. Cells picked from the surface of the stored cultures were used to initiate liquid pre–cultures of the same selective medium at an initial turbidity of roughly 1 McFarland unit. Pre–cultures were incubated for 24 h in a rotary shaking incubator and subsequently they were used to inoculate the test cultures used for the determination of MIC at an initial turbidity of 0.5 McFarland units. The test cultures consisted of Mueller –Hinton broth (Deben Diagnostics Ltd) containing different concentrations of the compounds.
(§3) Different concentrations were achieved as follows: the compounds were freshly dissolved in DMSO to a concentration of 1 mg mL–1 and they were diluted with DMSO, using the method of progressive double dilution. Therefore, working solutions with decreasing concentrations of the compounds under investigation were achieved. The working solutions were subsequently diluted to the final desired concentration by addition to the growth medium at a proportion of 2:98. MIC values were determined as the lowest concentrations of the tested compounds that inhibited visible growth of each respective organism after a 24 h incubation [ S3]. Bacterial growth was determined by measuring the turbidity of appropriately diluted cultures at 600 nm with reference to equally diluted sterile growth medium and the inhibition achieved was calculated by comparing the turbidity of each culture to the average of the turbidity of three non–inhibited cultures. All test cultures were grown in triplicates and for the determination of MIC, growth had to be inhibited in at least two cultures of the triplicate. Incubation temperature at all stages was 37°C except for X. campestris that was cultivated at 28°C [S4].

[2] = system: Escherichia coli NCTC 29212; assay: MIC determination; assay type: cell-based
Procedure: as §1, §2, §3

[3] = system: Staphylococcus aureus ATCC 6538; assay: MIC determination; assay type: cell-based
Procedure: as §1, §2, §3

[4] = system: Xanthomonas campestris ATCC 1395; assay: MIC determination; assay type: cell-based; conditions: Xanthomonas campestris, ATCC1395, 24 h, read-out: MIC X. campestris
Procedure: as §1, §2, §3

[5] = cited from earlier work
[6] = cited from earlier work; remark: listed apart in the source
[7] = cited from earlier work; remark: listed apart in the source
CT DNA = conditions: cited from earlier work
EB-DNA adduct (CT DNA) = conditions: cited from earlier work
BSA [8] = target: T1, BSA (Bos taurus, UniProt P02769); conditions: cited from earlier work
T1 construct: purchased Sigma-Aldrich Co
T1 sequence (P02769 25-607): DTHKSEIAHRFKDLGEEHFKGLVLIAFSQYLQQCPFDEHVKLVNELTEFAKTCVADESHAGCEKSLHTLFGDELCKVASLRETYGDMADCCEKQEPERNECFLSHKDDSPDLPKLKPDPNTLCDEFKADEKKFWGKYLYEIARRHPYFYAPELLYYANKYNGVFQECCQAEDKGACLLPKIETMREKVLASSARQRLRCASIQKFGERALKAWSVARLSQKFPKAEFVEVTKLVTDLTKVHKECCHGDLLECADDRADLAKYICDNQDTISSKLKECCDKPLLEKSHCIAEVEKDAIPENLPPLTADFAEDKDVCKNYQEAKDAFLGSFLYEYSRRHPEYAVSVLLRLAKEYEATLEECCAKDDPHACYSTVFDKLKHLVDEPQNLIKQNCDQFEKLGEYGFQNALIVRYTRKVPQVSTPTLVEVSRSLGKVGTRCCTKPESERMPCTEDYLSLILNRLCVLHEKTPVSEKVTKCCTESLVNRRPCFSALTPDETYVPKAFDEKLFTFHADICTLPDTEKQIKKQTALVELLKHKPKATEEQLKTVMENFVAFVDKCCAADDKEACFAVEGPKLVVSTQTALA

HSA [9] = target: T2, HSA (Homo sapiens, UniProt P02768); conditions: cited from earlier work
T2 construct: purchased Sigma-Aldrich Co
T2 sequence (P02768 25-609): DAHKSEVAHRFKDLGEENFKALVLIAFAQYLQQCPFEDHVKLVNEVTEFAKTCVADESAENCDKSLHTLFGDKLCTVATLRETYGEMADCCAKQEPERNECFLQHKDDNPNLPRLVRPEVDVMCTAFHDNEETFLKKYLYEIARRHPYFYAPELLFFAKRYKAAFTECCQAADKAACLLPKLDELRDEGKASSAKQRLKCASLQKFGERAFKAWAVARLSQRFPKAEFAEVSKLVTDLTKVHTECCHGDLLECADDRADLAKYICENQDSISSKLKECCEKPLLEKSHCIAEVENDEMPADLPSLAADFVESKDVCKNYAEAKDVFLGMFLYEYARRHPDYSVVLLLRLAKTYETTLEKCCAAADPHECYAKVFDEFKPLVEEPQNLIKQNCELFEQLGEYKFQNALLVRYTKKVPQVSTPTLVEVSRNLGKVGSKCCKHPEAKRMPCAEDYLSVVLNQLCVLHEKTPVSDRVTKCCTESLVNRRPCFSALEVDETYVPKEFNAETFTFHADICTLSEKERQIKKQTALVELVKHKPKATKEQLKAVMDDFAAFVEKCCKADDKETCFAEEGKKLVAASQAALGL

BSA [10] = target: T1, BSA; conditions: cited from earlier work; remark: listed apart in the source
HSA [11] = target: T2, HSA; conditions: cited from earlier work; remark: listed apart in the source
DPPH radical scavenging = conditions: compound 0.1 mM
Procedure: (§4) S1 Antioxidant biological assay
The antioxidant activity of the compounds was evaluated via their ability to scavenge in
vitro free radicals such as DPPH and ABTS and to reduce H2O2. All the experiments were carried
S1.1 Determination of the reducing activity of the stable radical DPPH
To an ethanolic solution of DPPH (0.1 mM) an equal volume solution of the compounds
(0.1 mM) in ethanol was added. Absolute ethanol was also used as control solution. The absorbance
at 517 nm was recorded at room temperature after 30 and 60 min, in order to examine the possible
existence of a potential time–dependence of the DPPH radical scavenging activity [S1]. The DPPH–
scavenging activity of the compounds was expressed as the percentage reduction of the absorbance
values of the initial DPPH solution (DPPH%). NDGA and BHT were used as reference compounds. […]

[12] = Reduction of hydrogen peroxide; conditions: compound 0.1 mM
Procedure: as §4
(§5) The antioxidant activity of the compounds was evaluated via their ability to scavenge in […]
(§6) vitro free radicals such as DPPH and ABTS and to reduce H2O2. […]
S1.3 Reduction of hydrogen peroxide
The ability of the compounds to reduce hydrogen peroxide (H2O2) was estimated according […]
to the method described in the literature [S2]. The reaction mixture contained 20 μL of each of the […]
tested compounds (0.1 mM) and 5 μL H 2O2 solution (40 mM) in phosphate buffer (50 mM, pH 7.4).
The absorbance was measured at 230 nm after 10 min. The antioxidant activity (reduction of […]

[13] = system: S. aureus, B. subtilis, E. coli, X. campestris; assay: MIC stated for all tested bacterial strains; assay type: cell-based; conditions: all tested microbes
Procedure: as §1, §2, §3

[14] = ABTS radical cation scavenging; conditions: compound 0.1 mM
Procedure: as §4, §5, §6
S1.2 Assay of radical cation ABTS–scavenging activity
The ABTS assay was performed to determine the activity of the compounds to scavenge the […]
radical cation ABTS. Initially, a water solution of ABTS was prepared (2 mM). ABTS radical cation […]
(ABTS+·) was produced by the reaction of ABTS stock solution with potassium persulfate (0.17 […]
mM) and the mixture was stored in the dark at room temperature for 12–16 h before its use. The […]
ABTS was oxidized incompletely because the stoichiometric reaction ratio of ABTS and potassium […]
persulfate is 1:0.5. The absorbance became maximal and stable only after more than 6 h of reaction […]
although the oxidation of the ABTS started immediately. The radical was stable in this form for […]
more than 2 days when allowed to stand in the dark at room temperature. Afterwards, the ABTS+· […]
solution was diluted in ethanol to an absorbance of 0.70 at 734 nm and 10 μL of diluted compounds or standards (0.1 mM) in DMSO were added. The absorbance was recorded out exactly 1 min after […]
initial mixing [S1]. The ABTS radical scavenging activity was expressed as the percentage inhibition of the absorbance of the initial ABTS solution (ABTS%). […]

For `O=Cc1cc(Br)cc(Br)c1O` [3,5-diBr-saloH, 3,5-dibromo-salicylaldehyde], the MIC ([1]; Bacillus subtilis, ATCC6633, 24 h, read-out: MIC B. subtilis) was 25 µg/mL and 89 µM, the MIC ([2]; Escherichia coli, NCTC29212, 24 h, read-out: MIC E. coli) was 50 µg/mL and 179 µM and the MIC ([3]; Staphylococcus aureus, ATCC6538, 24 h, read-out: MIC S. aureus) was 25 µg/mL and 89 µM. The MIC [4] was 25 µg/mL and 89 µM, the “DPPH% (30 min)” value [5] was 7.97 ± 0.53% and the “DPPH% (60 min)” value [5] was 10.22 ± 0.30%. The ABTS% [6] was 16.55 ± 0.31%, the H2O2% [7] was 76.05 ± 1.51% and the “Kb (DNA-binding constant)” value (CT DNA) was 3.71 (±0.14) × 10^5 M^−1. The “KSV (Stern–Volmer constant), EB-DNA” value (EB-DNA adduct (CT DNA)) was 3.95 (±0.10) × 10^4 M^−1, the “kq (EB-DNA quenching constant)” value (EB-DNA adduct (CT DNA)) was 1.72 (±0.04) × 10^12 M^−1s^−1 and the “ΔΙ/Ι0 (%) EB-DNA fluorescence quenching” value (EB-DNA adduct (CT DNA)) was 46.6%. The “K BSA-binding constant” value (BSA [8]) was 2.97 (±0.16) × 10^6 M^−1, the “kq BSA-quenching constant” value (BSA [8]) was 3.65 (±0.25) × 10^13 M^−1 s^−1 and the “K HSA-binding constant” value (HSA [9]) was 4.04 (±0.30) × 10^5 M^−1. For the same compound, the “kq HSA-quenching constant” value (HSA [9]) was 1.72 (±0.06) × 10^13 M^−1 s^−1, the “BSA-binding constant K, Marker: Ibuprofen” value (BSA [10]) was 7.11 (±0.29) × 10^5 M^−1 and the “BSA-binding constant K, No Marker” value (BSA [10]) was 2.97 (±0.16) × 10^6 M^−1. For the same compound, the “BSA-binding constant K, Marker: Warfarin” value (BSA [10]) was 2.84 (±0.10) × 10^5 M^−1, the “HSA-binding constant K, Marker: Ibuprofen” value (HSA [11]) was 4.56 (±0.37) × 10^4 M^−1 and the “HSA-binding constant K, No Marker” value (HSA [11]) was 4.04 (±0.30) × 10^5 M^−1. The “HSA-binding constant K, Marker: Warfarin” value (HSA [11]) was 1.23 (±0.05) × 10^5 M^−1.
For `O=Cc1cc(Cl)cc(Cl)c1O` [3,5-diCl-saloH, 3,5-dichloro-salicylaldehyde], the MIC ([1]; Bacillus subtilis, ATCC6633, 24 h; read-out: MIC B. subtilis) was 50 µg/mL, the MIC ([1]; Bacillus subtilis, ATCC6633; 24 h, value in parentheses; read-out: MIC B. subtilis) was 262 µM and the MIC ([2]; Escherichia coli, NCTC29212, 24 h; read-out: MIC E. coli) was 50 µg/mL. For the same compound, the MIC ([2]; Escherichia coli, NCTC29212; 24 h, value in parentheses; read-out: MIC E. coli) was 262 µM, the MIC ([3]; Staphylococcus aureus, ATCC6538, 24 h; read-out: MIC S. aureus) was 50 µg/mL and the MIC ([3]; Staphylococcus aureus, ATCC6538; 24 h, value in parentheses; read-out: MIC S. aureus) was 262 µM. For the same compound, the MIC [4] was 50 µg/mL and 262 µM, the “DPPH% (30 min)” value [5] was 15.68 ± 0.15% and the “DPPH% (60 min)” value [5] was 18.80 ± 0.52%. The ABTS% [6] was 84.89 ± 0.16%, the H2O2% [7] was 79.92 ± 0.34% and the “Kb (DNA-binding constant)” value (CT DNA) was 5.36 (±0.15) × 10^5 M^−1. For the same compound, the “KSV (Stern–Volmer constant), EB-DNA” value (EB-DNA adduct (CT DNA)) was 3.56 (±0.09) × 10^4 M^−1, the “kq (EB-DNA quenching constant)” value (EB-DNA adduct (CT DNA)) was 1.55 (±0.04) × 10^12 M^−1s^−1 and the “ΔΙ/Ι0 (%) EB-DNA fluorescence quenching” value (EB-DNA adduct (CT DNA)) was 43.2%. The “K BSA-binding constant” value (BSA [8]) was 1.64 (±0.10) × 10^6 M^−1, the “kq BSA-quenching constant” value (BSA [8]) was 1.47 (±0.09) × 10^13 M^−1 s^−1 and the “K HSA-binding constant” value (HSA [9]) was 6.33 (±0.14) × 10^5 M^−1. For the same compound, the “kq HSA-quenching constant” value (HSA [9]) was 7.11 (±0.32) × 10^12 M^−1 s^−1, the “BSA-binding constant K, Marker: Ibuprofen” value (BSA [10]) was 1.35 (±0.55) × 10^5 M^−1 and the “BSA-binding constant K, No Marker” value (BSA [10]) was 1.64 (±0.10) × 10^6 M^−1. For the same compound, the “BSA-binding constant K, Marker: Warfarin” value (BSA [10]) was 5.09 (±0.09) × 10^5 M^−1, the “HSA-binding constant K, Marker: Ibuprofen” value (HSA [11]) was 1.87 (±0.08) × 10^5 M^−1 and the “HSA-binding constant K, No Marker” value (HSA [11]) was 6.33 (±0.14) × 10^5 M^−1. The “HSA-binding constant K, Marker: Warfarin” value (HSA [11]) was 1.52 (±0.07) × 10^5 M^−1.
For `Cc1cc(C(C)(C)C)c(O)c(C(C)(C)C)c1` [BHT, butylated hydroxytoluene, reference compound], the “DPPH% (30 min)” value (DPPH radical scavenging) was 61.30 ± 1.16% and the “DPPH% (60 min)” value (DPPH radical scavenging) was 79.78 ± 1.12%.
For `CC[n+]1c(-c2ccccc2)c2cc(N)ccc2c2ccc(N)cc21.[Br-]` [EB, 3,8-diamino-5-ethyl-6-phenyl-phenanthridinium bromide], the “Kb (DNA-binding constant)” value (CT DNA; classical intercalator) is given as 1.23 (±0.07) × 10^5 M^−1.
With `O=C1O[C@H]([C@@H](O)CO)C(O)=C1O` [L-ascorbic acid, reference compound] the H2O2% [12] was 60.80 ± 0.20%.
With `CC(Cc1ccc(O)c(O)c1)C(C)Cc1ccc(O)c(O)c1` (stereo not shown) [NDGA, nordihydroguaiaretic acid, reference compound] the “DPPH% (30 min)” value (DPPH radical scavenging) was 87.08 ± 0.12% and the “DPPH% (60 min)” value (DPPH radical scavenging) was 87.47 ± 0.12%.
With `CC(=O)[O-].CC(=O)[O-].[Pd+2]` [Pd(CH3COO)2] the MIC [13] was over 200 µg/mL.
`Cc1c(C)c2c(c(C)c1O)CCC(C)(C(=O)O)O2` (stereo not shown) [Trolox, 6-hydroxy-2,5,7,8-tetramethylchromane-2-carboxylic acid, reference compound] showed an ABTS% [14] of 98.10 ± 0.48%.
